Test results reported in patent US20220387602A1, “BIFUNCTIONAL DEGRADERS AND THEIR METHODS OF USE” (NOVARTIS AG, priority 2019, published 2022).

Columns and labels:
CRBN [1] = biological target: T1, CRBN (Homo sapiens, UniProt Q96SW2); test: CRBN displacement assay Format 2a (fluorescence polarization, 1536-well, Envision reader); assay type: binding; conditions: for CRBN Amax* (% at 50 μM) Format 2a: greatest effect as % displacement of the reference probe at the highest concentration tested (50 μM), given where AC50 >50 μM, 45 min
Protocol: (§1) Compounds were tested in the following biochemical and cellular assays.
(§2) BodipyFL conjugated lenalidomide compound HH was used as a fluorescent probe. […] Protein and substrate were diluted in assay buffer.
The fluorescence of the Bodipy FL-based probe was excited at 480 nm and the emissions of the product were measured at 535 nm. The fluorescence in each well was excited by 30 flashes per measurement.
For the determination of AC50 values, assays were performed at room temperature in 1536-well plates with a total assay volume of 6.03 μL per well. The test compounds were dissolved and diluted in 100% DMSO. For the assays, 30 nL of DMSO or compound solution were added per well, followed by the addition of 3 μL protein solution (80 nM protein in 1× assay buffer).
The final assay concentration of the protein was nominally 40 nM. After 45 minutes of pre-incubation at room temperature, the competition for binding was started by the addition of 3 μL probe solution (10 nM probe dissolved in assay buffer). The final concentration of the probe in the assays was 5 nM. After the addition of the probe solution, the final DMSO concentration in the assay was 0.5% (v/v). The effect of the probe on the pre-established compound-protein complex equilibrium was determined after 45 minutes (t=45 min). The AC50 value was calculated from the plot of percentage of protein saturation versus the test compound concentration by a logistics fit according to: y=A^2+(A^1−A^2)/(1+(x/AC50)^p), where y is the %-saturation value at the test compound concentration, x. A^1 is the lowest saturation value, i.e., 0%, and A^2 the maximum saturation value, i.e. 100%. The exponent, p, is the Hill coefficient.

CRBN [2] = biological target: T1, CRBN; test: CRBN displacement assay Format 1 (fluorescence polarization, BodipyFL-lenalidomide probe Compound HH); assay type: binding
Protocol: as §1, §2
All protein and probe containing solutions were handled in ‘Maxymum Recovery’ tubes (Axygen Scientific Inc., Union City, USA). […] For the plate measurements a PHERAstar reader (BMG Labtech, Offenburg, Germany) was used. The instrument was equipped with a specific optics module containing filters and dichoic mirrors for measuring the fluorescence polarization-type assay. With this module, the fluorescence of the Bodipy FL-based probe was excited at 485 nm and the emissions of the product were measured at 520 nm. The fluorescence in each well was excited by 10 flashes per measurement.
For the determination of AC50 values, the assays were performed at room temperature in 384-well plates with a total assay volume of 10.1 μL per well. The test compound was dissolved in 90% (v/v) DMSO/water. For the assays, 100 nL of the 90% (v/v) DMSO/water solution or compound solution were added per well, followed by the addition of 5 μL protein solution (protein in 1× assay buffer).
The final assay concentration of the protein was nominally 100 nM. After 45 minutes of pre-incubation at room temperature, the competition for binding was started by the addition of 5 μL probe solution (probe dissolved in assay buffer). The final concentration of the probes in the assays was 5 nM. After the addition of the probe solution, the final DMSO concentration in the assay was 0.9% (v/v). The effect of the probe on the pre-established compound-protein complex equilibrium was determined after 45 minutes (t=45 min). The AC50 value was calculated from the plot of percentage of protein saturation versus the test compound concentration by a logistics fit according to: y=A^2+(A^1−A^2)/(1+(x/AC50)^p), where y is the %-saturation value at the test compound concentration, x. A^1 is the lowest saturation value, i.e., 0%, and A^2 the maximum saturation value, i.e. 100%. The exponent, p, is the Hill coefficient.

[3] = concentration at which 50% of reference probe Compound HH is displaced, 40 nM protein, 5 nM probe, read-out: CRBN AC50 [μM] Format 2a
[4] = concentration at which 50% of reference probe Compound HH is displaced, 100 nM protein, 5 nM probe, Table 4, read-out: CRBN AC50 [μM] Format 1

T1 sequence (Q96SW2 whole entry): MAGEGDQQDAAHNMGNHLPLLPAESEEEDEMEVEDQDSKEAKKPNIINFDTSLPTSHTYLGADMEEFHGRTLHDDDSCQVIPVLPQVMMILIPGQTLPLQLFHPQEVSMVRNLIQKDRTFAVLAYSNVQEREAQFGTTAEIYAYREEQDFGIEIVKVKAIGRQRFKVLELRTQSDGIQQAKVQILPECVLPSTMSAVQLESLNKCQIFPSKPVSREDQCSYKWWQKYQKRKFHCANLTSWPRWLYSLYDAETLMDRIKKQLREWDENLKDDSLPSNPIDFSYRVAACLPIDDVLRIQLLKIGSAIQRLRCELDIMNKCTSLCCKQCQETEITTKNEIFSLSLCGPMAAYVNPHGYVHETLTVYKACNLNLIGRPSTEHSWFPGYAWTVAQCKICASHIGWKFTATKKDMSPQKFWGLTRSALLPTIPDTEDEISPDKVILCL

Structure (SMILES)	AC50 (CRBN [1]; [3])	AC50 (CRBN [2]; [4])	AC50 (CRBN [1])	CRBN Amax* (% at 50 μM) Format 2a (CRBN [1])	AC50 (CRBN [2])
Cc1ccc(S(=O)(=O)NCCCCCN)cc1N1CCC(=O)NC1=O [ILB-53, N-(5-aminopentyl)-3-(2,4-dioxotetrahydropyrimidin-1(2H)-yl)-4-methylbenzenesulfonamide]	2.16 µM	14.9 µM	–	–	–
O=C(O)COc1ccc(N2CCC(=O)NC2=O)cc1 [ILB-14, 2-(4-(2,4-Dioxotetrahydropyrimidin-1(2H)-yl)phenoxy)acetic acid]	5.79 µM	13 µM	–	–	–
O=CCOc1cccc(N2CCC(=O)NC2=O)c1 [ILB-18, 2-(3-(2,4-Dioxotetrahydropyrimidin-1(2H)-yl)phenoxy)acetaldehyde]	3.79 µM	11.2 µM	–	–	–
O=C1CCN(Cc2cccc(CCO)c2)C(=O)N1 [ILB-7, 1-(3-(2-Hydroxyethyl)benzyl)dihydropyrimidine-2,4(1H,3H)-dione]	–	–	> 50 µM	40%	61.2 µM
O=C1CCN(Cc2cc(C(=O)O)ccn2)C(=O)N1 [ILB-8, 2-((2,4-Dioxotetrahydropyrimidin-1(2H)-yl)methyl)isonicotinic acid]	–	–	> 50 µM	21%	> 100 µM
O=C1CCN(c2cc(C(=O)O)ccc2Cl)C(=O)N1 [ILB-25, 4-chloro-3-(2,4-dioxotetrahydropyrimidin-1(2H)-yl)benzoic acid]	0.48 µM	1.98 µM	–	–	–
CC(C)(C)OC(=O)NCC#Cc1cc(F)c(N2CCC(=O)NC2=O)c(F)c1 [ILB-43, tert-Butyl (3-(4-(2,4-dioxotetrahydropyrimidin-1(2H)-yl)-3,5-difluorophenyl)prop-2-yn-1-yl)carbamate]	–	–	2.93 µM	–	2.99 µM
O=C(O)COc1cccc(N2CCC(=O)NC2=O)c1 [ILB-16, 2-(3-(2,4-Dioxotetrahydropyrimidin-1(2H)-yl)phenoxy)acetic acid]	7.34 µM	11.7 µM	–	–	–
O=C1CCN(c2cc(C(=O)O)ccc2F)C(=O)N1 [ILB-27, 3-(2,4-dioxotetrahydropyrimidin-1(2H)-yl)-4-fluorobenzoic acid]	0.74 µM	3.03 µM	–	–	–
COc1cc(C(=O)O)ccc1N1CCC(=O)NC1=O [ILB-81, 4-(2,4-dioxotetrahydropyrimidin-1(2H)-yl)-3-methoxybenzoic acid]	2.38 µM	12.3 µM	–	–	–
O=C1CCN(c2cccc(C(=O)O)c2)C(=O)N1 [ILB-28, 3-(2,4-dioxotetrahydropyrimidin-1(2H)-yl)benzoic acid]	1.3 µM	3.41 µM	–	–	–
COc1ccc(C(=O)O)cc1N1CCC(=O)NC1=O [ILB-26, 3-(2,4-dioxotetrahydropyrimidin-1(2H)-yl)-4-methoxybenzoic acid]	1.26 µM	2.92 µM	–	–	–
C=CCOc1cccc(N2CCC(=O)NC2=O)c1 [ILB-34, 1-(3-(allyloxy)phenyl)dihydropyrimidine-2,4(1H,3H)-dione]	1.91 µM	3.65 µM	–	–	–
COc1ccc(C(=O)N2CCC3(CCNCC3)CC2)cc1N1CCC(=O)NC1=O [ILB-56, 1-(2-methoxy-5-(3,9-diazaspiro[5.5]undecane-3-carbonyl)phenyl)dihydropyrimidine-2,4(1H,3H)-dione]	–	–	0.23 µM	–	1.26 µM
COc1ccc(C(=O)N2CCC(OC3CCNCC3)CC2)cc1N1CCC(=O)NC1=O [ILB-59, 1-(2-methoxy-5-(4-(piperidin-4-yloxy)piperidine-1-carbonyl)phenyl)dihydropyrimidine-2,4(1H,3H)-dione]	–	–	0.34 µM	–	1.36 µM
O=C1CCN(Cc2cccn(CCN3CCC(OC4CCNCC4)CC3)c2=O)C(=O)N1 [ILB-6, 1-((2-oxo-1-(2-(4-(piperidin-4-yloxy)piperidin-1-yl)ethyl)-1,2-dihydropyridin-3-yl)methyl)dihydropyrimidine-2,4(1H,3H)-dione]	–	–	8.36 µM	–	19.8 µM
C#Cc1cccc(N2CCC(=O)NC2=O)c1 [ILB-33, 1-(3-ethynylphenyl)dihydropyrimidine-2,4(1H,3H)-dione]	2.68 µM	6.52 µM	–	–	–
O=C1CCN(c2ccc(C(=O)O)cc2)C(=O)N1 [ILB-31]	5.1 µM	9.64 µM	–	–	–
O=C1CCN(c2ccc(OCC(=O)N3CCC(OC4CCNCC4)CC3)cc2)C(=O)N1 [ILB-55, 1-(4-(2-Oxo-2-(4-(piperidin-4-yloxy)piperidin-1-yl)ethoxy)phenyl)dihydropyrimidine-2,4(1H,3H)-dione]	–	–	4.04 µM	–	14.4 µM
Cc1ccc(C(=O)O)cc1N1CCC(=O)NC1=O [ILB-24, 3-(2,4-dioxotetrahydropyrimidin-1(2H)-yl)-4-methylbenzoic acid]	0.68 µM	2.85 µM	–	–	–
